# Publication PMC5039417, “Aberrant Glycosylation of Anchor-Optimized MUC1 Peptides Can Enhance Antigen Binding Affinity and Reverse Tolerance to Cytotoxic T Lymphocytes” (Biomolecules, 2016)
# No end group written: not given here.
# Legend:
# HLA-A*0201 molecules = HLA-A*0201 molecules (Homo sapiens, UniProt P04439, D140Y/D185E/D98H/E176V/E277Q/G131W/G231S/I119V/I121R/I166T/I218V/L300P/L318F/N151K/N90K/P208A/P217A/Q86G/Q94H/R138H/R169H/T345S); experiment: Competitive peptide inhibition assay (F1-peptide displacement on T2 cells)
# [1] = target: HLA-A*0201 molecules on T2 cells (Homo sapiens, UniProt P04439, D140Y/D185E/D98H/E176V/E277Q/G131W/G231S/I119V/I121R/I166T/I218V/L300P/L318F/N151K/N90K/P208A/P217A/Q86G/Q94H/R138H/R169H/T345S); experiment: MHC stabilization assay on T2 cells (fluorescence index); assay type: cell-based; conditions: peptide 0–100 μg/mL, β2-microglobulin 1 μg/mL, 18 h 37 °C, BB7.2 antibody, flow cytometry
# Method: Figure 1 MUC1 peptides (anchor-optimized and glycosylated) stabilized HLA-A*0201 molecules on T2 cells. Increasing amounts of the MUC1 peptides (0–100 μg/mL) and β2-microglobulin (1 μg/mL) were incubated with T2 cells for 18 h at 37 °C prior to staining with the HLA-A*0201 antibody (clone BB7.2, Pharmingen). Mean fluorescence intensity (MFI) was determined by flow cytometry and the fluorescence index (FI) was calculated from the formula: FI = (FS − FB)/(FT2 − FB) × 100 where FS is the MFI of the test peptides, FB is the non-peptide isotype antibody-stained control MFI, and FT2 is the non-peptide HLA-A*0201 antibody-stained control MFI.
# Peptide binding to HLA-A*0201 was analyzed using TAP1- and TAP2-deficient T2 cells which express the HLA-A*0201 allele. […] Binding of the peptides was measured using flow cytometry for upregulation of HLA-A2 surface expression on the T2 cells. […] Mean fluorescence intensity (MFI) was determined and the fluorescence index (FI) was calculated from the formula: FI = (FS − FB)/(FT2 − FB) × 100 where FS is the MFI of the test peptides, FB is the no-peptide isotype antibody-stained control MFI, and FT2 is the no-peptide HLA-A2 antibody-stained control MFI [52].
# [2] = test system: MCF-7 cells (HLA-A*0201+, MUC1+); experiment: 51Cr-release assay, peptide-induced CTLs from breast cancer patients; assay type: cell-based, human
# Text: Figure 7 In vitro stimulation of T cells from HLA-A*0201^+ cancer patients (peri-menopausal) with anchor-optimized and/or glycosylated MUC1 peptides elicited strong CTL activity. (A) PBLs underwent two rounds of stimulation and sorted CD8^+ T cells were subjected to a ^51Cr-release assay. Targets were MCF-7 cells (HLA-A*0201^+, MUC1^+). Effector:target ratio was 100:1 and spontaneous release was less than 25% of complete lysis. The filled triangles designate normal individuals and the open triangles designate breast cancer patients. […] Following two rounds of stimulation, CD8^+ cells were maintained for 24 h on an ELISpot plate. Spot numbers were determined using computer assisted video image analysis by Zellnet Consulting Inc. (FortLee, NJ, USA). There was no evidence of a significance difference in spot numbers between cancer patients and healthy controls (Wilcoxon rank sum test; p > 0.05).
# An optimized protocol for the generation of peptide-specific CTLs was developed that relied upon autologous DCs for stimulation. PBMCs (2 × 10^6 cells/mL of AIM V medium) were transferred to a 24-well plate and incubated for 2 h at 37 °C. Non-adherent lymphocytes were washed off with PBS and the adherent cells were cultured in X-VIVO medium containing GM-CSF (1000 U/mL) and IL-4 (1000 U/mL) to generate DCs. […] DCs were analyzed by flow cytometry for appropriate maturation markers. […] Five to seven days later, T cells were analyzed for cytolytic activity by ^51Cr-release assay and interferon gamma production by ELISPOT.
# The lytic activity of the in vitro stimulated peptide-specific CTLs was measured by a standard six-hour ^51Cr-release assay. […] After incubation, 30 μL of supernatant was transferred onto LUMA plates (Perkin Elmer, Waltham, MA, USA) and radioactive ^51Cr release was measured in a Topcount Micro-scintillation Counter (Packard Biosciences, Shelton, CT, USA). […]
# [3] = test system: CD8+ T cells from HLA-A*0201 breast cancer patients; experiment: 3H-thymidine proliferation of T cells from breast cancer patients; assay type: cell-based, human; conditions: 23 HLA-A*0201 breast cancer patients, DCs pulsed with 10 μg/mL peptide + IL-2, 5 days, vs no-peptide stimulated T cells
# Method: CD8^+ T cells from the patients were incubated with irradiated autologous DCs pulsed with the various MUC1 peptides (10 μg/mL) plus IL-2 for 5 days and proliferation was assessed by measuring the ^3H-thymidine uptake. T cells from ~38% of the breast cancer patients responded to the selected MUC1 peptides (Figure 6).
# Figure 6 T cells from ~38% of the HLA-A2^+ breast cancer patients regardless of their stage, ER/PR and HER2 status responded to the selected MUC1 peptides. 1 × 10^5 T cells were incubated with irradiated […] DCs pulsed with the various MUC1 peptides (10 μg/mL) + IL-2 for 5 days in complete media. Proliferation was assessed by measuring the ^3H-thymidine uptake and is reported as fold increase in counts per minute. The dotted line indicates the two-fold increase in proliferation.
# [4] = test system: MCF-7 cells (MUC1+, HLA-A*0201+); experiment: 51Cr-release assay, peptide-induced CTLs from normal donors; assay type: cell-based, human
# [5] = test system: CD8+ T cells (IFNγ production); experiment: IFNγ ELISpot of peptide-induced CD8+ T cells; assay type: cell-based, human
# Method: Figure 5 Production of IFNγ by CD8^+ T cells was induced in response to MUC1 peptides. Following two rounds of stimulation, CD8^+ cells were maintained for 24 h on an ELISpot plate. Spot numbers were determined using computer assisted video image analysis by Zellnet Consulting Inc. There were no significance differences compared to the negative peptide (p > 0.05).
# IFNγ ELISpot plates from Mabtech (Stockholm, Sweden) were used to detect IFNγ producing MUC1-specific CTLs. The assay was performed using the capture IFNγ antibody as recommended by the manufacturer. Day five post R2-stimulation, the CTLs were washed three times and 1 × 10^5 cells were transferred to the washed and blocked IFNγ ELISpot plates and incubated at 37 °C in a 5% CO2 incubator for 24 h. After incubation the plates were washed with PBS, incubated with alkaline phosphatase-conjugated IFNγ antibody at room temperature for two hours and then spots were detected with BCIP/NBT substrate. Spot numbers were determined using computer assisted video image analysis by Zellnet Consulting Inc. (Fort Lee, NJ, USA).
compound,measurement,setting,value
CC(C)C[C@H](NC(=O)[C@@H](N)CO)C(=O)N[C@@H](C)C(=O)N1CCC[C@H]1C(=O)N1CCC[C@H]1C(=O)N[C@H](C(=O)N[C@@H](Cc1c[nH]cn1)C(=O)N[C@@H](CC(N)=O)C(=O)N[C@H](C(=O)O)C(C)C)C(C)C [P15],IC50,HLA-A*0201 molecules,363 nM
SLSYTNPAV [P7],IC50,HLA-A*0201 molecules,441 nM
LLLLTVLTV [P5],IC50,HLA-A*0201 molecules,11100 nM
"STAPPVHNV [P1, native MUC1 degenerate tandem repeat peptide]",Binding to HLA-A*0201 on T2 cells by fluorescence index (FI),[1],bound moderately
same,IC50 (concentration producing 50% inhibition of F1-peptide binding),"HLA-A*0201 molecules; T2 cells, F1-peptide 100 ng/mL, β2-microglobulin 1 μg/mL, competitor 0–100 μg/mL, flow cytometry MFI, Prism",10.13 µg/mL
same,Affinity class of binder to HLA-A*0201,HLA-A*0201 molecules; scored from IC50 in the competition assay on T2 cells,medium (“medium affinity binders” with IC50 of ≥to 5 μg/mL and <15 μg/mL)
same,Lysis of MCF-7 cells by T cells from cancer samples,"[2]; all three breast cancer patient samples, E:T 100:1",greater than 30%
same,Activation of lytic T cells from breast cancer patients,"[2]; three breast cancer patients, MCF-7 targets",effectively activated lytic T cells from all three breast cancer patients
same,Patients responding with >2-fold increase in proliferation,[3],8/23
same,Lysis of MCF-7 cells by CTLs elicited with the peptide,"[4]; 8 normal post-menopausal HLA-A*0201 women, E:T 100:1, 6 h, p = 0.008 vs negative control P11",did not elicit lytic T cells
"STAPT(Tn)VHNV [P2, Tn-glycosylated MUC1 peptide]","IFNγ production by CTLs elicited by the peptide, one individual",[5]; CTLs from one normal individual,strong production of IFNγ
same,IFNγ production by CD8+ T cells generated to the peptide,"[5]; normal donors, two rounds of stimulation, 24 h on ELISpot plate",showed production of IFNγ
same,"Lysis of MCF-7 cells by CTLs elicited with the peptide, one individual","[4]; CTLs from one normal individual, E:T 100:1",low lysis
"ALGSTAPPV [P9, unmodified native MUC1 degenerate TR peptide, reference compound]",% of Donors with at Least 30% Cell Kill,"[4]; normal donors (n = 8), MCF-7 targets, E:T 100:1, 30% cell kill considered a response",12.50%
